Measured values from ChEMBL document CHEMBL4400567, “Discovery of novel selective Janus kinase 2 (JAK2) inhibitors bearing a 1H-pyrazolo[3,4-d]pyrimidin-4-amino scaffold” (Bioorg Med Chem, 2019).

What was measured:
TF-1 = test: cells; format: functional, cell-based; conditions: Homo sapiens, TF-1, 48 h
Description: Antiproliferative activity against JAK2 wild-type human TF1 cells measured after 48 hrs by CellTiter-Glo assay

[1] = molecular target: Tyrosine-protein kinase JAK1 (Homo sapiens, UniProt P23458); format: ADME
HEL = test: cells; format: functional, cell-based; conditions: Homo sapiens, 48 h
Description: Antiproliferative activity against human HEL cells harboring JAK2 V617F mutant measured after 48 hrs by CellTiter-Glo assay

THP-1 = test: cells; format: ADME, cell-based; conditions: Homo sapiens
Description: Cytotoxicity against IL-4 induced JAK1/3 activated human THP1 cells preincubated for 1 hr followed by IL-4 induction and measured after 1 hr by CellTiter-Glo assay

cells = format: ADME, cell-based; conditions: Homo sapiens, NK92, 48 h
Description: Cytotoxicity against human NK92 cells harboring JAK1/3 measured after 48 hrs by CellTiter-Glo assay

Sequence of Tyrosine-protein kinase JAK1 (P23458 whole entry): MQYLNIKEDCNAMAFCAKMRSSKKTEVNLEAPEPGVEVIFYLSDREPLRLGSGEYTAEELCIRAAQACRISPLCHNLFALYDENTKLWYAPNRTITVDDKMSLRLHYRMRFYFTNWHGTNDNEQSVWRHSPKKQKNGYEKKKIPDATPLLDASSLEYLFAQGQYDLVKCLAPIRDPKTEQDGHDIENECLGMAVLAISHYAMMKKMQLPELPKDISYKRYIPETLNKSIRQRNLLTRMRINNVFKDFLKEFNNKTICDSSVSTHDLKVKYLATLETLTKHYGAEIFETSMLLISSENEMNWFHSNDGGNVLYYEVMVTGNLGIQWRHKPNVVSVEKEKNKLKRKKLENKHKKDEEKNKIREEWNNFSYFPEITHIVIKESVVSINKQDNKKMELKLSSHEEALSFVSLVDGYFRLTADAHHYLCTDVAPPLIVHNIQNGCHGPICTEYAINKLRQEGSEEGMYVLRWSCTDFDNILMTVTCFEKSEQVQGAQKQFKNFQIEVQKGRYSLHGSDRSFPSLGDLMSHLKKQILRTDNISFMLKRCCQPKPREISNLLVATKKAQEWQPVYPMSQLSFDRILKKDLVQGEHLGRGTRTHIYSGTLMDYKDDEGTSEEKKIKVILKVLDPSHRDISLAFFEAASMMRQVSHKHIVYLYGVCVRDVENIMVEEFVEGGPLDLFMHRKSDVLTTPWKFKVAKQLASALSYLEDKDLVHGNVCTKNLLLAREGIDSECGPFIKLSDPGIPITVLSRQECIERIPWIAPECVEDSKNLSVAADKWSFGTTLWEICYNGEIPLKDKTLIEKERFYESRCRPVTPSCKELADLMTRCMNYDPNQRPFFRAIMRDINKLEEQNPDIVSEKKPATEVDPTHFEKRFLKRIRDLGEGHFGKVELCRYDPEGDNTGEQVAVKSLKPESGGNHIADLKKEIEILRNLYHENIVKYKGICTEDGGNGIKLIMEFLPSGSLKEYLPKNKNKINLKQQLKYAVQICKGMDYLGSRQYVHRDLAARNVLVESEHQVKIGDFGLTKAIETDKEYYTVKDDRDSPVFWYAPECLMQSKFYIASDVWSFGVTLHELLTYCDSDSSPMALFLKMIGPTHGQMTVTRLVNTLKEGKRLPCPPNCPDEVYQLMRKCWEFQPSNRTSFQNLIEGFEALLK

Row | IC50 (TF-1) | IC50 [1] | IC50 (HEL) | IC50 (THP-1) | IC50 (cells) | Compound
1 | 2 µM | 0.104 µM | 4.7 µM | 18.5 µM | 22.1 µM | C=CC(=O)N1CCC(n2nc(-c3cc(C(C)(C)O)n(C)n3)c3c(N)ncnc32)C1 (stereo not given)
2 | 7.1 µM | 0.215 µM | 8.2 µM | 28.8 µM | 23.6 µM | C=CC(=O)N1CCCC(n2nc(-c3cc(C=O)n(C)n3)c3c(N)ncnc32)C1 (stereo not given)
